The test system of test [1] is Beet Armyworm (Spodoptera exigua) ("BAW"), second instar larvae. Briefly: Bioassay on beet armyworm (BAW), 128-well diet tray assay. Type of test: in vivo. Conditions: Spodoptera exigua, read-out: BAW (Biological Results, rating). Put shortly: (§1)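 Each value represents average percent mortality from eight wells. Larvae were kept in clear-covered trays at 25° C. for five to seven days on a 14-hour light, 10-hour dark schedule before scoring.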

Test [2] has as its system Cabbage Looper (Trichoplusia ni) ("CL"), second instar larvae. Briefly: Bioassay on cabbage looper (CL), 128-well diet tray assay. To be noted: Trichoplusia ni, read-out: CL (Biological Results, rating). Type of test: in vivo. The method in brief: as §1

Turning to `COC(C)c1ccc(C)cc1N1C(=O)CS/C1=N\C(=O)Nc1ccc(-c2ncn(-c3ccc(C(F)(F)F)cc3)n2)cc1F` (stereo not shown) [Compound J62, (Z)-1-(2-Fluoro-4-(1-(4-(trifluoromethyl)phenyl)-1H-1,2,4-triazol-3-yl)phenyl)-3-(3-(2-(1-methoxyethyl)-5-methylphenyl)-4-oxothiazolidin-2-ylidene)urea], the pest or weed control at 50 µg/cm2 in test [1] and in test [2] was 50 to 100% throughout.

As for `Cc1ccc(OCC(F)(F)F)c(N2C(=O)CS/C2=N\C(=O)Nc2ccc(-c3ncn(-c4ccc(C(F)(F)F)cc4)n3)cc2F)c1` [Compound J63, (Z)-1-(2-Fluoro-4-(1-(4-(trifluoromethyl)phenyl)-1H-1,2,4-triazol-3-yl)phenyl)-3-(3-(5-methyl-2-(2,2,2-trifluoroethoxy)phenyl)-4-oxothiazolidin-2-ylidene)urea], the pest or weed control at 50 µg/cm2 in test [1] and in test [2] was 50 to 100% in each case.

`Cc1ccc(OCCC(F)(F)F)c(N2C(=O)CS/C2=N\C(=O)Nc2ccc(-c3ncn(-c4ccc(C(F)(F)F)cc4)n3)cc2F)c1` [Compound J64, (Z)-1-(2-Fluoro-4-(1-(4-(trifluoromethyl)phenyl)-1H-1,2,4-triazol-3-yl)phenyl)-3-(3-(5-methyl-2-(3,3,3-trifluoropropoxy)phenyl)-4-oxothiazolidin-2-ylidene)urea]: the pest or weed control at 50 µg/cm2 in test [1] and in test [2] was 50 to 100% in each case.

Take `CCC(C)c1ccc(C)cc1N1C(=O)CS/C1=N\C(=O)Nc1ccc(-c2ncn(-c3ccc(C(F)(F)F)cc3)n2)cc1F` (stereo not shown) [Compound J65, (Z)-1-(3-(2-(sec-Butyl)-5-methylphenyl)-4-oxothiazolidin-2-ylidene)-3-(2-fluoro-4-(1-(4-(trifluoromethyl)phenyl)-1H-1,2,4-triazol-3-yl)phenyl)urea]: the pest or weed control at 50 µg/cm2 in test [1] and in test [2] was 50 to 100% throughout.

Regarding `COCc1ccc(C)cc1N1C(=O)CS/C1=N\C(=O)Nc1ccc(-c2ncn(-c3ccc(OC(F)(F)F)cc3)n2)cc1C` [Compound J67, (Z)-1-(3-(2-(Methoxymethyl)-5-methylphenyl)-4-oxothiazolidin-2-ylidene)-3-(2-methyl-4-(1-(4-(trifluoromethoxy)phenyl)-1H-1,2,4-triazol-3-yl)phenyl)urea], the pest or weed control at 50 µg/cm2 in test [1] and in test [2] was 50 to 100% throughout.

On to `Cc1cc(-c2ncn(-c3ccc(OC(F)(F)F)cc3)n2)ccc1NC(=O)/N=C1\SCC(=O)N1c1cc(N(C)C)ccc1C(C)C` [Compound J68, (Z)-1-(3-(5-(Dimethylamino)-2-isopropylphenyl)-4-oxothiazolidin-2-ylidene)-3-(2-methyl-4-(1-(4-(trifluoromethoxy)phenyl)-1H-1,2,4-triazol-3-yl)phenyl)urea], for which the pest or weed control at 50 µg/cm2 in test [1] and in test [2] was 50 to 100% each time.

On to `CCN(CC)c1ccc(C(C)C)c(N2C(=O)CS/C2=N\C(=O)Nc2ccc(-c3ncn(-c4ccc(OC(F)(F)F)cc4)n3)cc2F)c1` [Compound J69, (Z)-1-(3-(5-(diethylamino)-2-isopropylphenyl)-4-oxothiazolidin-2-ylidene)-3-(2-fluoro-4-(1-(4-(trifluoromethoxy)phenyl)-1H-1,2,4-triazol-3-yl)phenyl)urea], for which the pest or weed control at 50 µg/cm2 in test [1] and in test [2] was 50 to 100% in each case.

For `Cc1ccc(C(C)C)c(N2C(=O)CS/C2=N\C(=O)Nc2c(F)cc(-c3ncn(-c4ccc(OC(F)(F)F)cc4)n3)cc2F)c1` [Compound J78, (Z)-1-(2,6-Difluoro-4-(1-(4-(trifluoromethoxy)phenyl)-1H-1,2,4-triazol-3-yl)phenyl)-3-(3-(2-isopropyl-5-methylphenyl)-4-oxothiazolidin-2-ylidene)urea], the pest or weed control at 50 µg/cm2 in test [1] and in test [2] was 50 to 100% in each case.

As to `Cc1ccc(OCC(F)(F)F)c(N2C(=O)CS/C2=N\C(=O)Nc2c(F)cc(-c3ncn(-c4ccc(OC(F)(F)F)cc4)n3)cc2F)c1` [Compound J79, (Z)-1-(2,6-Difluoro-4-(1-(4-(trifluoromethoxy)phenyl)-1H-1,2,4-triazol-3-yl)phenyl)-3-(3-(5-methyl-2-(2,2,2-trifluoroethoxy)phenyl)-4-oxothiazolidin-2-ylidene)urea], the pest or weed control at 50 µg/cm2 in test [1] and in test [2] was 50 to 100% throughout.

Consider `Cc1ccc(OCCCC(F)(F)F)c(N2C(=O)CS/C2=N\C(=O)Nc2c(F)cc(-c3ncn(-c4ccc(OC(F)(F)F)cc4)n3)cc2F)c1` [Compound J80, (Z)-1-(2,6-Difluoro-4-(1-(4-(trifluoromethoxy)phenyl)-1H-1,2,4-triazol-3-yl)phenyl)-3-(3-(5-methyl-2-(4,4,4-trifluorobutoxy)phenyl)-4-oxothiazolidin-2-ylidene)urea], for which the pest or weed control at 50 µg/cm2 in test [1] and in test [2] was 50 to 100% throughout.

As to `COC(C)c1ccc(C)cc1N1C(=O)CS/C1=N\C(=O)Nc1c(F)cc(-c2ncn(-c3ccc(OC(F)(F)F)cc3)n2)cc1F` (stereo not shown) [Compound J81, (Z)-1-(2,6-Difluoro-4-(1-(4-(trifluoromethoxy)phenyl)-1H-1,2,4-triazol-3-yl)phenyl)-3-(3-(2-(1-methoxyethyl)-5-methylphenyl)-4-oxothiazolidin-2-ylidene)urea], the pest or weed control at 50 µg/cm2 in test [1] and in test [2] was 50 to 100% each time.

On to `CC(C)c1ccc(N(C)C)cc1N1C(=O)CS/C1=N\C(=O)Nc1c(F)cc(-c2ncn(-c3ccc(OC(F)(F)F)cc3)n2)cc1F` [Compound J82, (Z)-1-(2,6-Difluoro-4-(1-(4-(trifluoromethoxy)phenyl)-1H-1,2,4-triazol-3-yl)phenyl)-3-(3-(5-(dimethylamino)-2-isopropylphenyl)-4-oxothiazolidin-2-ylidene)urea], for which the pest or weed control at 50 µg/cm2 in test [1] and in test [2] was 50 to 100% in each case.

On to `CCc1cc(-c2ncn(-c3ccc(OC(F)(F)F)cc3)n2)ccc1NC(=O)/N=C1\SCC(=O)N1c1cc(N(C)C)ccc1C(C)C` [Compound J83, (Z)-1-(3-(5-(Dimethylamino)-2-isopropylphenyl)-4-oxothiazolidin-2-ylidene)-3-(2-ethyl-4-(1-(4-(trifluoromethoxy)phenyl)-1H-1,2,4-triazol-3-yl)phenyl)urea], for which the pest or weed control at 50 µg/cm2 in test [1] and in test [2] was 50 to 100% each time.

For `CN(C)c1cccc(N2C(=O)CS/C2=N\C(=O)Nc2ccc(-c3ncn(-c4ccc(OC(F)(F)F)cc4)n3)cc2F)c1` [Compound J84, (Z)-1-(3-(3-(Dimethylamino)phenyl)-4-oxothiazolidin-2-ylidene)-3-(2-fluoro-4-(1-(4-(trifluoromethoxy)phenyl)-1H-1,2,4-triazol-3-yl)phenyl)urea], the pest or weed control at 50 µg/cm2 in test [1] and in test [2] was 50 to 100% throughout.

`CNc1ccc(C(C)C)c(N2C(=O)CS/C2=N\C(=O)Nc2ccc(-c3ncn(-c4ccc(OC(F)(F)F)cc4)n3)cc2F)c1` [Compound J85, (Z)-1-(2-Fluoro-4-(1-(4-(trifluoromethoxy)phenyl)-1H-1,2,4-triazol-3-yl)phenyl)-3-(3-(2-isopropyl-5-(methylamino)phenyl)-4-oxothiazolidin-2-ylidene)urea]: the pest or weed control at 50 µg/cm2 in test [1] and in test [2] was 50 to 100% each time.

In the case of `COc1cc(-c2ncn(-c3ccc(OC(F)(F)F)cc3)n2)ccc1NC(=O)/N=C1\SCC(=O)N1c1cc(N(C)C)ccc1C(C)C` [Compound J89, (Z)-1-(3-(5-(Dimethylamino)-2-isopropylphenyl)-4-oxothiazolidin-2-ylidene)-3-(2-methoxy-4-(1-(4-(trifluoromethoxy)phenyl)-1H-1,2,4-triazol-3-yl)phenyl)urea], the pest or weed control at 50 µg/cm2 in test [1] and in test [2] was 50 to 100% throughout.

Turning to `COc1cc(-c2ncn(-c3ccc(OC(F)(F)F)cc3)n2)ccc1NC(=O)/N=C1\SCC(=O)N1c1cc(C)ccc1C(C)OC` (stereo not shown) [Compound J90, (Z)-1-(2-Methoxy-4-(1-(4-(trifluoromethoxy)phenyl)-1H-1,2,4-triazol-3-yl)phenyl)-3-(3-(2-(1-methoxyethyl)-5-methylphenyl)-4-oxothiazolidin-2-ylidene)urea], the pest or weed control at 50 µg/cm2 in test [1] and in test [2] was 50 to 100% each time.

`COc1cc(-c2ncn(-c3ccc(OC(F)(F)F)cc3)n2)ccc1NC(=O)/N=C1\SCC(=O)N1c1cc(C)ccc1OCCC(F)(F)F` [Compound J91, (Z)-1-(2-Methoxy-4-(1-(4-(trifluoromethoxy)phenyl)-1H-1,2,4-triazol-3-yl)phenyl)-3-(3-(5-methyl-2-(3,3,3-trifluoropropoxy)phenyl)-4-oxothiazolidin-2-ylidene)urea]: the pest or weed control at 50 µg/cm2 in test [1] and in test [2] was 50 to 100% in each case.

On to `COc1ccc(OCCC(F)(F)F)c(N2C(=O)CS/C2=N\C(=O)Nc2ccc(-c3ncn(-c4ccc(OC(F)(F)F)cc4)n3)cc2F)c1` [Compound J92, (Z)-1-(2-Fluoro-4-(1-(4-(trifluoromethoxy)phenyl)-1H-1,2,4-triazol-3-yl)phenyl)-3-(3-(5-methoxy-2-(3,3,3-trifluoropropoxy)phenyl)-4-oxothiazolidin-2-ylidene)urea], for which the pest or weed control at 50 µg/cm2 in test [1] and in test [2] was 50 to 100% each time.

`Cc1ccc(OCCC(F)(F)F)c(N2C(=O)CS/C2=N\C(=O)Nc2ccc(-c3ncn(-c4ccc(OC(F)(F)F)cc4)n3)cc2C(C)C)c1` [Compound J93, (Z)-1-(2-Isopropyl-4-(1-(4-(trifluoromethoxy)phenyl)-1H-1,2,4-triazol-3-yl)phenyl)-3-(3-(5-methyl-2-(3,3,3-trifluoropropoxy)phenyl)-4-oxothiazolidin-2-ylidene)urea]: the pest or weed control at 50 µg/cm2 in test [1] and in test [2] was 50 to 100% in each case.

Source of the values: US20230077362A1 (CORTEVA AGRISCIENCE LLC, priority 2019, published 2023).
